# Assay results from patent publication US10093671B2, “2-oxo-6,7-dihydrobenzo[a]quinolizine-3-carboxylic acid derivatives for the treatment and prophylaxis of hepatitis B virus infection” (Hoffmann-La Roche Inc., priority 2015, dated 2018).
# Where a name gives a salt, the structure may show the parent alone.
# How the values were obtained:
# HBsAg = assay: microbe, parasite or virus in culture; details: Hepatitis B virus, HepG2.2.15, read-out: IC50 (HBsAg secretion reduced by 50% compared to the no drug control)
# Procedure: HepG2.2.15 cells (Acs et al. Proc Natl Acad Sci USA, 84, (1987), 4641-4), a constitutively HBV-expressing cell line were cultured in DMEM+Glutamax-I medium (Invitrogen, Carlsbad, Calif., USA), supplemented with 10% fetal bovine serum (Invitrogen) and G418 (Invitrogen) at a final concentration of 200 mg/L and maintained in 5% CO2 at 37° C.
# HepG2.2.15 cells were seeded in duplicate into white, 96-well plates at 1.5×10^4 cells/well. The cells were treated with a three-fold serial dilution series of the compounds in DMSO. The final DMSO concentration in all wells was 1% and DMSO was used as no drug control.
# The HBsAg chemiluminescence immunoassay (CLIA) kit (Autobio Diagnostics Co., Zhengzhou, China, Catalog number: CL0310-2) was used to measure the levels of secreted HBV antigens semi-quantitatively. For the detection 50 μL/well culture supernatant was used and HBsAg was quantified using HBsAg chemiluminescence immunoassay (CLIA) kit (Autobio Diagnostics Co., Zhengzhou, China, Catalog number: CL0310-2), 50 μL of the supernatant was transferred to the CLIA assay plate and 50 μL of enzyme conjugate reagent was added into each well. The plates were sealed and gently agitated for 1 hour at room temperature. The supernatant-enzyme-mixture was discarded and wells were washed 6 times with 300 μL of PBS. The residual liquid was removed by plating the CLIA plate right side down on absorbent tissue paper. 25 μL of substrates A and B were added to each well. Luminance was measured using a luminometer (Mithras LB 940 Multimode Microplate Reader) after 10 minutes incubation. Dose-response curves were generated and the IC50 value was extrapolated by using the E-WorkBook Suite (ID Business Solutions Ltd., Guildford, UK). The IC50 was defined as the compound concentration (or conditioned media log dilution) at which HBsAg secretion was reduced by 50% compared to the no drug control.
# HBV DNA = HBV DNA assay (real-time qPCR of extracellular HBV DNA copy number, HepG2.2.15 cells); assay type: cell-based; details: Hepatitis B virus, 144 h, six days, extracellular HBV DNA by qPCR, read-out: IC50 (Anti HBV DNA production activity)
# Procedure: The assay employs real-time qPCR (TaqMan) to directly measure extracellular HBV DNA copy number. HepG2.2.15 cells were plated in 96-well microtiter plates. Only the interior wells were utilized to reduce “edge effects” observed during cell culture, the exterior wells were filled with complete medium to help minimize sample evaporation. On the following day, the HepG2.2.15 cells were washed and the medium was replaced with complete medium containing various concentrations of a test compound in triplicate. 3TC was used as the positive control, while media alone was added to cells as a negative control (virus control, VC). Three days later, the culture medium was replaced with fresh medium containing the appropriately diluted drug. Six days following the initial administration of the test compound, the cell culture supernatant was collected, treated with pronase and then used in a real-time qPCR/TaqMan assay to determine HBV DNA copy numbers. Antiviral activity was calculated from the reduction in HBV DNA levels (IC50).
Compound,IC50 (HBsAg) [nM],IC50 (HBV DNA) [nM]
"COCCCOc1cc2c(cc1OC)-c1cc(=O)c(C(=O)O)cn1C(c1ccc(O)cc1)C2 (centres unmarked) [Example 4, 6-(4-hydroxyphenyl)-10-methoxy-9-(3-methoxypropoxy)-2-oxo-6,7-dihydrobenzo[a]quinolizine-3-carboxylic Acid]",1160,
"COCCCOc1cc2c(cc1OC)-c1cc(=O)c(C(=O)O)cn1C(c1ccc(OC)cc1)C2 (centres unmarked) [Example 5, 10-methoxy-6-(4-methoxyphenyl)-9-(3-methoxypropoxy)-2-oxo-6,7-dihydrobenzo[a]quinolizine-3-carboxylic Acid]",800,
"COCCCOc1cc2c(cc1OC)-c1cc(=O)c(C(=O)O)cn1C(c1ccc(OCc3ccccc3)cc1)C2 (centres unmarked) [Example 6, 6-(4-benzyloxyphenyl)-10-methoxy-9-(3-methoxypropoxy)-2-oxo-6,7-dihydrobenzo[a]quinolizine-3-carboxylic Acid]",1930,
"COCCCOc1cc2c(cc1OC)-c1cc(=O)c(C(=O)O)cn1C(c1cc(C)cs1)C2 (centres unmarked) [Example 7, 10-methoxy-9-(3-methoxypropoxy)-6-(4-methyl-2-thienyl)-2-oxo-6,7-dihydrobenzo[a]quinolizine-3-carboxylic Acid]",9,< 32
"COCCCOc1cc2c(cc1OC)-c1cc(=O)c(C(=O)O)cn1C(c1ccc(F)cc1)C2 (centres unmarked) [Example 9, 6-(4-fluorophenyl)-10-methoxy-9-(3-methoxypropoxy)-2-oxo-6,7-dihydrobenzo[a]quinolizine-3-carboxylic Acid]",83,
"COCCCOc1cc2c(cc1OC)-c1cc(=O)c(C(=O)O)cn1C(c1ccccc1C)C2 (centres unmarked) [Example 10, 10-methoxy-9-(3-methoxypropoxy)-6-(o-tolyl)-2-oxo-6,7-dihydrobenzo[a]quinolizine-3-carboxylic Acid]",10,
"COc1ccc2c(c1C)CC(c1cccs1)n1cc(C(=O)O)c(=O)cc1-2 (centres unmarked) [Example 11, 9-methoxy-8-methyl-2-oxo-6-(2-thienyl)-6,7-dihydrobenzo[a]quinolizine-3-carboxylic Acid]",170,
"COc1cc2c(cc1OCc1ccccc1)CC(c1cccs1)n1cc(C(=O)O)c(=O)cc1-2 (centres unmarked) [Example 12, 9-benzyloxy-10-methoxy-2-oxo-6-(2-thienyl)-6,7-dihydrobenzo[a]quinolizine-3-carboxylic Acid]",5,
"COc1cc2c(cc1OC)-c1cc(=O)c(C(=O)O)cn1C(c1cccs1)C2 (centres unmarked) [Example 13, 9,10-dimethoxy-2-oxo-6-(2-thienyl)-6,7-dihydrobenzo[a]quinolizine-3-carboxylic Acid]",6,
"COc1cc2c(cc1OCC(C)C)CC(c1cccs1)n1cc(C(=O)O)c(=O)cc1-2 (centres unmarked) [Example 14, 9-isobutoxy-10-methoxy-2-oxo-6-(2-thienyl)-6,7-dihydrobenzo[a]quinolizine-3-carboxylic Acid]",2,
"COc1cc2c(cc1OCC1CC1)CC(c1cccs1)n1cc(C(=O)O)c(=O)cc1-2 (centres unmarked) [Example 15, 9-(cyclopropylmethoxy)-10-methoxy-2-oxo-6-(2-thienyl)-6,7-dihydrobenzo[a]quinolizine-3-carboxylic Acid]",2,< 32
"COc1cc2c(cc1OCCCn1cccn1)CC(c1cccs1)n1cc(C(=O)O)c(=O)cc1-2 (centres unmarked) [Example 16, 10-methoxy-2-oxo-9-(3-pyrazol-1-ylpropoxy)-6-(2-thienyl)-6,7-dihydrobenzo[a]quinolizine-3-carboxylic Acid]",9,
"COc1cc2c(cc1OCCCO)CC(c1cccs1)n1cc(C(=O)O)c(=O)cc1-2 (centres unmarked) [Example 17, 9-(3-hydroxypropoxy)-10-methoxy-2-oxo-6-(2-thienyl)-6,7-dihydrobenzo[a]quinolizine-3-carboxylic Acid]",18,
"COc1cc2c(cc1OCCCN1CCCCC1)CC(c1cccs1)n1cc(C(=O)O)c(=O)cc1-2 (centres unmarked) [Example 18, 10-methoxy-2-oxo-9-[3-(1-piperidyl)propoxy]-6-(2-thienyl)-6,7-dihydrobenzo[a]quinolizine-3-carboxylic Acid Formate]",97,
"COc1cc2c(cc1OCCCC#N)CC(c1cccs1)n1cc(C(=O)O)c(=O)cc1-2 (centres unmarked) [Example 19, 9-(3-cyanopropoxy)-10-methoxy-2-oxo-6-(2-thienyl)-6,7-dihydrobenzo[a]quinolizine-3-carboxylic Acid]",5,
"COc1cc2c(cc1OCCN1CCCC1=O)CC(c1cccs1)n1cc(C(=O)O)c(=O)cc1-2 (centres unmarked) [Example 20, 10-methoxy-2-oxo-9-[2-(2-oxopyrrolidin-1-yl)ethoxy]-6-(2-thienyl)-6,7-dihydrobenzo[a]quinolizine-3-carboxylic Acid]",37,
"COc1cc2c(cc1OCCCCCCNC(=O)OC(C)(C)C)CC(c1cccs1)n1cc(C(=O)O)c(=O)cc1-2 (centres unmarked) [Example 21, 9-[6-(tert-butoxycarbonylamino)hexoxy]-10-methoxy-2-oxo-6-(2-thienyl)-6,7-dihydrobenzo[a]quinolizine-3-carboxylic Acid]",6,

Compound,IC50 (HBsAg) [nM],IC50 (HBV DNA) [nM]
"COc1cc2c(cc1OCCCCCCN)CC(c1cccs1)n1cc(C(=O)O)c(=O)cc1-2 (centres unmarked) [Example 22, 9-(6-aminohexoxy)-10-methoxy-2-oxo-6-(2-thienyl)-6,7-dihydrobenzo[a]quinolizine-3-carboxylic Acid Formate]",21,
"COc1cc2c(cc1OCCCCCCNC(C)=O)CC(c1cccs1)n1cc(C(=O)O)c(=O)cc1-2 (centres unmarked) [Example 23, 9-(6-acetamidohexoxy)-10-methoxy-2-oxo-6-(2-thienyl)-6,7-dihydrobenzo[a]quinolizine-3-carboxylic Acid]",18,
"COc1cc2c(cc1OCCCCCCNS(C)(=O)=O)CC(c1cccs1)n1cc(C(=O)O)c(=O)cc1-2 (centres unmarked) [Example 24, 9-[6-(methanesulfonamido)hexoxy]-10-methoxy-2-oxo-6-(2-thienyl)-6,7-dihydrobenzo[a]quinolizine-3-carboxylic Acid]",10,
"COc1cc2c(cc1OCCCCCCO)CC(c1cccs1)n1cc(C(=O)O)c(=O)cc1-2 (centres unmarked) [Example 25, 9-(6-hydroxyhexoxy)-10-methoxy-2-oxo-6-(2-thienyl)-6,7-dihydrobenzo[a]quinolizine-3-carboxylic Acid]",3,
"COc1cc2c(cc1OCC(C)(C)CO)CC(c1cccs1)n1cc(C(=O)O)c(=O)cc1-2 (centres unmarked) [Example 26, 9-(3-hydroxy-2,2-dimethyl-propoxy)-10-methoxy-2-oxo-6-(2-thienyl)-6,7-dihydrobenzo[a]quinolizine-3-carboxylic Acid]",4,
"COc1cc2c(cc1OCC(F)(F)F)CC(c1cccs1)n1cc(C(=O)O)c(=O)cc1-2 (centres unmarked) [Example 27, 10-methoxy-2-oxo-6-(2-thienyl)-9-(2,2,2-trifluoroethoxy)-6,7-dihydrobenzo[a]quinolizine-3-carboxylic Acid]",3,
"COc1cc2c(cc1OCCCN1CCOCC1)CC(c1cccs1)n1cc(C(=O)O)c(=O)cc1-2 (centres unmarked) [Example 28, 10-methoxy-9-(3-morpholinopropoxy)-2-oxo-6-(2-thienyl)-6,7-dihydrobenzo[a]quinolizine-3-carboxylate]",10,
"COc1cc2c(cc1OCCCn1cncn1)CC(c1cccs1)n1cc(C(=O)O)c(=O)cc1-2 (centres unmarked) [Example 29, 10-methoxy-2-oxo-6-(2-thienyl)-9-[3-(1,2,4-triazol-1-yl)propoxy]-6,7-dihydrobenzo[a]quinolizine-3-carboxylic Acid]",64,
"COc1cc2c(cc1OCCCC(=O)O)CC(c1cccs1)n1cc(C(=O)O)c(=O)cc1-2 (centres unmarked) [Example 30, 9-(3-carboxypropoxy)-10-methoxy-2-oxo-6-(2-thienyl)-6,7-dihydrobenzo[a]quinolizine-3-carboxylic Acid]",320,
"COc1cc2c(cc1OCCCSC)CC(c1cccs1)n1cc(C(=O)O)c(=O)cc1-2 (centres unmarked) [Example 31, 10-methoxy-9-(3-methylsulfanylpropoxy)-2-oxo-6-(2-thienyl)-6,7-dihydrobenzo[a]quinolizine-3-carboxylic Acid]",4,
"COc1cc2c(cc1OCCCS(C)(=O)=O)CC(c1cccs1)n1cc(C(=O)O)c(=O)cc1-2 (centres unmarked) [Example 32, 10-methoxy-9-(3-methylsulfonylpropoxy)-2-oxo-6-(2-thienyl)-6,7-dihydrobenzo[a]quinolizine-3-carboxylic Acid]",110,
"COc1cc2c(cc1C)CC(c1cccs1)n1cc(C(=O)O)c(=O)cc1-2 (centres unmarked) [Example 33, 10-methoxy-9-methyl-2-oxo-6-(2-thienyl)-6,7-dihydrobenzo[a]quinolizine-3-carboxylic Acid]",35,
"CCc1cc2c(cc1OC)-c1cc(=O)c(C(=O)O)cn1C(c1cccs1)C2 (centres unmarked) [Example 34, 9-ethyl-10-methoxy-2-oxo-6-(2-thienyl)-6,7-dihydrobenzo[a]quinolizine-3-carboxylic Acid]",24,
"CCCc1cc2c(cc1OC)-c1cc(=O)c(C(=O)O)cn1C(c1cccs1)C2 (centres unmarked) [Example 35, 10-methoxy-2-oxo-9-propyl-6-(2-thienyl)-6,7-dihydrobenzo[a]quinolizine-3-carboxylic Acid]",22,
"COc1cc2c(cc1N1CCCC1)CC(c1cccs1)n1cc(C(=O)O)c(=O)cc1-2 (centres unmarked) [Example 36, 10-methoxy-2-oxo-9-pyrrolidin-1-yl-6-(2-thienyl)-6,7-dihydrobenzo[a]quinolizine-3-carboxylic Acid]",3,
"COCCCOc1cc2c(cc1Cl)-c1cc(=O)c(C(=O)O)cn1C(c1cc3ccccc3s1)C2 (centres unmarked) [Example 37, 6-(benzothiophen-2-yl)-10-chloro-9-(3-methoxypropoxy)-2-oxo-6,7-dihydrobenzo[a]quinolizine-3-carboxylic Acid]",4420,
